This is an account of results in US11591323B2, “Muscarinic agonists as non-steroidal and non-opioid analgesics and methods of use thereof” (Barry University, priority 2019, dated 2023).

For the test, the system named is rat aorta smooth muscle cells (mainly M2, lesser M3). Nature of the test: IPX level in primary culture of rat aorta smooth muscle cells. In kind it is cell-based. The conditions noted are these: in words. How it is done: Effects of compounds 6A and 7A on both cAMP and IPX levels were also measured in primary cultures of rat aorta smooth muscle cells that express mainly M2 and to a lesser extent M3 receptors (FIG. 6). […] Receptor expression levels are far lower in tested native tissues than in transfected cell lines and vary among tissues, being highest in the striatum and lowest in the submaxillary gland. Relative expression levels of G-proteins are also known to vary among tissues and cell lines. Thus, it is great to see that the pharmacological profile of the new compounds is conserved despite these variations.
Cell culture and membrane preparation: Chinese hamster ovary (CHO) cells stably transfected with the genes of individual human variants of muscarinic receptors were purchased from Missouri S&T cDNA Resource Center (Rolla, Mo., USA). Fresh primary cell culture of smooth muscle cells (SMC) from rat aorta prepared as previously described was kindly provided by Dr. Lucie Bačáková. […]
Measurements of the production of cAMP and inositol phosphates: Levels of second messengers cAMP and inositol phosphates were determined in radiochemical chromatography assays as described previously. […] Samples were applied to alumina columns (1.5 g of alumina per column), washed with 2 ml ammonium acetate (pH=7.0) and eluted from columns with 4 ml ammonium acetate and measured by liquid scintillation spectrometry. […]

For `C[N+](C)(C)CCOC(N)=O` [carbachol, reference compound], the IPX level entry is recorded as “increase in IPX level”.
